Data published in patent publication US20090124672A1 (priority 2007, published 2009).
Values joined by “and” are separate entries in the source; they are usually repeats but may differ in a detail not shown here. Equal values may be shown once.

Assays:
[1] = tested on: Sprague-Dawley rats treated with DMCM; experiment: Social interaction test, DMCM-induced anxiety; format: in vivo, rat; details: 0.5 mg/kg DMCM
Description: (§1) Experienced observers blinded to the experimental conditions carried out the social interaction test in a square open field (60 cm by 60 cm, with 16 15×15 cm squares marked out on the floor). Pairs of rats receiving the same treatment were placed in the arena and the onset of social interactions recorded. This procedure has been validated by previous studies (Overstreet et al. (2002); Overstreet et al. (2003)). Rats were unfamiliar with the open field and lighting conditions were low in order to generate an intermediate level of anxiety-related behavior. Rat pairs matched according to weight and treatment were placed simultaneously in the open field. During the 5-min session, line crosses (by two forepaws) and time spent in social interaction (grooming, sniffing, following) were scored individually for each rat (Kampov-Polevoy et al., 2000; Overstreet et al., 2002, 2003).
(§2) Fifteen min later the rats received a second injection of 0.5 mg/kg DMCM (methyl 6,7-demethoxy-4-ethyl-β-carboline-3-carboxylate) or vehicle (acidified saline). The rats were placed in the open field arena 15 min after the second injection for recording social interaction and locomotor activity for 5-min. Approximately one week later the rats were treated with Compound A (3.75, 7.5 or 15 mg/kg). The 5-HT2C agonist mCPP (m-chlorophenylpiperazine; 0.5 mg/kg) or vehicle (saline) was given 15 min later. After another 15 min period, the social interaction and locomotor activity for five min were recorded.

hMAO-B = molecular target: T1, hMAO-B (Homo sapiens, UniProt P27338); experiment: MAO-B inhibition assay (Amplex Red, horseradish peroxidase-coupled); format: biochemical; details: at 10 μM; for inhibition at 10 µM: read-out: hMAO-B inhibition (IC50 hMAO-B)
T1 construct: purchased Sigma M7441
T1 sequence (P27338 1-520): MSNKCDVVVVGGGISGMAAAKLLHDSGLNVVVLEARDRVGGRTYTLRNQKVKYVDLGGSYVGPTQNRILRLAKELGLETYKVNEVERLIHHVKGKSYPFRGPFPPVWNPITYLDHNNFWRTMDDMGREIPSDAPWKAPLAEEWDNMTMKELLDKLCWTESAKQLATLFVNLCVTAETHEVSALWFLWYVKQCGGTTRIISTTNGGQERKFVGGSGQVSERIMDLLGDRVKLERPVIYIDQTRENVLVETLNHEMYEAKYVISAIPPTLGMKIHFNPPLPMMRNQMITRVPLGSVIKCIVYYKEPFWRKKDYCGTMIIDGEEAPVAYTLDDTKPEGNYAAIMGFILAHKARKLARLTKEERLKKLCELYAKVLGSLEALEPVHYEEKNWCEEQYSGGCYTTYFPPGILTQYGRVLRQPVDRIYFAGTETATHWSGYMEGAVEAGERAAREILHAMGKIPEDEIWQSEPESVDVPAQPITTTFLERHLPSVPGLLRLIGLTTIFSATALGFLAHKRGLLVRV
Method: MAO-A (Sigma M7316) and MAO-B (Sigma M7441) inhibition assays were conducted in 96-well micro-plates according to the method described by Zhou et al. [Analytical Biochemistry 253, 169-174, 1997]. Both assays were performed in potassium phosphate buffer (0.1 M, pH 7.5) containing 0.5 mM tyramine (Sigma T2879), 0.12 mM N-acetyl-3,7-dihydrophenoxazine (Amplex Red, Invitrogen A12222), 1.2 unit/ml horseradish peroxidase (Sigma P2088), 0.6 unit/ml MAO-A or 2.5 unit/ml MAO-B, and various concentrations of test compounds (0.1 nM to 10 uM). Reactions were initiated by the addition of a pre-mixed solution of tyramine, horseradish peroxidase and Amplex Red, and were allowed to proceed at 37° C. for 30 min. Enzyme activities were determined by measuring absorbance at 570 nm (SpectralMax Plate reader), absorbance of oxidized Amplex Red generated by this horseradish peroxidase-coupled reaction. Nonspecifically formed products were determined in the presence of 2 and 10 µM clorgyline and deprenyl for MAO-A and MAO-B, respectively. IC50 values were determined by fitting concentration-inhibition data to sigmoidal dose-response curves with two-floating parameters: IC50 and Hill coefficient.

[2] = molecular target: T2, hALDH2 (recombinant human mitochondria ALDH) (Homo sapiens, UniProt P05091); experiment: ALDH2 inhibition assay (NADH formation, formaldehyde substrate); format: biochemical; details: for inhibition at 1 µM: read-out: hALDH2 inhibition (IC50 hALDH2 column)
T2 sequence (P05091 18-517): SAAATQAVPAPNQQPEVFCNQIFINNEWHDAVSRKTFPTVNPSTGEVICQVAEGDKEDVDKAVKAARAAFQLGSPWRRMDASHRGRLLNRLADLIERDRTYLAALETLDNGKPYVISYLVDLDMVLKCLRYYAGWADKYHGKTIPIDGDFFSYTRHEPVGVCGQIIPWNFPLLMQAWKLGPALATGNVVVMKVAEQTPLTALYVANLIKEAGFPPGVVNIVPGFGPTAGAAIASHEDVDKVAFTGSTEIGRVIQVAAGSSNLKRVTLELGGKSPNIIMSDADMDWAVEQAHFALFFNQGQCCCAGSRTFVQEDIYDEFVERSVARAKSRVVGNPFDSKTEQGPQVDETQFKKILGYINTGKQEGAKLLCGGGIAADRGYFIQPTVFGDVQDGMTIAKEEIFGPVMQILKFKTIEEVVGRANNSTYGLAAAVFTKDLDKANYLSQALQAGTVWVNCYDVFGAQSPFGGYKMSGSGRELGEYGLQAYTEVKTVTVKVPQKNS
Procedure, shortened: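 1 nM enzyme in 50 mM sodium phosphate pH 7.4 with 1.2 mM NAD+ and compound at 0.03–1000 nM; reaction started with 0.15 mM formaldehyde at 25 °C. NADH formation followed by fluorescence (ex 340/em 460 nm). IC50 from sigmoidal fits with floating Hill slope; apparent Ki from Morrison equation if tight binding.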

[3] = tested on: Sprague-Dawley rats treated with mCPP; experiment: Social interaction test, mCPP-induced anxiety; format: in vivo, rat
Description: as §1, §2

Structure (SMILES)	inhibition at 10 µM (hMAO-B)	IC50 [2]	further results
CCc1c(C(=O)OC)ncc2[nH]c3cc(OC)c(OC)cc3c12 [DMCM, methyl 6,7-demethoxy-4-ethyl-β-carboline-3-carboxylate, reference compound]	–	–	social interaction (effect of anxiogenic agent) ([1]; 15 min before test): substantially reduced social interaction; locomotor activity (effect of anxiogenic agent) ([1]; compared to controls): reduced locomotor activity
CS(=O)(=O)Nc1ccc(-c2coc3cc(OCc4noc(-c5cc(F)cc(C(F)(F)F)c5)n4)ccc3c2=O)cc1 [PT-70, 7-({5-[3-fluoro-5-(trifluoromethyl)phenyl](1,2,4-oxadiazol-3-yl)}methoxy)-3-{4-[(methylsulfonyl)amino]phenyl}chromen-4-one]	11%	–	inhibition at 1 µM [2]: 20%
O=c1c(-c2ccc(O)cc2)coc2cc(OCc3nnc(-c4cc(F)cc(C(F)(F)F)c4)o3)ccc12 [PT-74, 7-({5-[3-fluoro-5-(trifluoromethyl)phenyl](1,3,4-oxadiazol-2-yl)}methoxy)-3-(4-hydroxyphenyl)chromen-4-one]	22%	5 nM	–
O=c1c(-c2ccc(O)cc2)coc2cc(OCc3ccccn3)ccc12 [PT-91, 3-(4-hydroxyphenyl)-7-(2-pyridylmethoxy)chromen-4-one]	11%	7 nM	–
COC(=O)c1coc(COc2ccc3c(=O)c(-c4ccc(O)cc4)coc3c2)n1 [PT-101, methyl 2-{[3-(4-hydroxyphenyl)-4-oxochromen-7-yloxy]methyl}-1,3-oxazole-4-carboxylate]	34%	5 nM	–
Cc1nc(-c2ccc(C(F)(F)F)cc2)sc1COc1ccc2c(=O)c(-c3ccc(NS(C)(=O)=O)cc3)coc2c1 [PT-66, 3-{4-[(methylsulfonyl)amino]phenyl}-7-({4-methyl-2-[4-(trifluoromethyl)phenyl](1,3-thiazol-5-yl)}methoxy)chromen-4-one]	25%	–	inhibition at 1 µM [2]: 48%
Clc1cccc(N2CCNCC2)c1 [mCPP, m-chlorophenylpiperazine]	–	–	social interaction (effect of anxiogenic agent) ([3]; 0.5 mg/kg mCPP, 15 min before test): low social interaction score; locomotor activity (effect of anxiogenic agent) ([3]; 0.5 mg/kg mCPP, compared to controls): reduced locomotor activity; locomotor activity compared to vehicle-treated rats receiving mCPP ([3]; rats receiving mCPP 0.5 mg/kg): no effect
C[C@@H](NC(=O)COc1ccc2c(=O)c(-c3ccc(O)cc3)coc2c1)c1ccc(F)cc1 [PT-90, N-[(1R)-1-(4-fluorophenyl)ethyl]-2-[3-(4-hydroxyphenyl)-4-oxochromen-7-yloxy]acetamide]	12%	6 nM	–
O=c1c(-c2ccc(O)cc2)coc2cc(OCCOc3ccc(Cl)cc3)ccc12 [PT-89, 7-[2-(4-chlorophenoxy)ethoxy]-3-(4-hydroxyphenyl)chromen-4-one]	32%	22 nM	–
CS(=O)(=O)Nc1ccc(-c2c(O)oc3cc(OCc4cccc(C(=O)O)c4)ccc3c2=O)cc1 [PT-111, 3-[(2-hydroxy-3-{4-[(methylsulfonyl)amino]phenyl}-4-oxochromen-7-yloxy)methyl]-benzoic acid]	30%	3 nM	–
O=c1c(-c2ccc(O)cc2)coc2cc(OCCc3cccc(C(F)(F)F)c3)ccc12 [PT-59, 3-(4-hydroxyphenyl)-7-{[3-(trifluoromethyl)phenyl]ethoxy}chromen-4-one]	–	670 nM	hMAO-B inhibition (IC50 hMAO-B) (hMAO-B): 24%
O=c1c(-c2ccc(O)cc2)coc2cc(OCc3ccncc3)ccc12 [PT-82, 3-(4-hydroxyphenyl)-7-(4-pyridylmethoxy)chromen-4-one]	15%	5 nM	–
C[C@H](NC(=O)COc1ccc2c(=O)c(-c3ccc(O)cc3)coc2c1)c1ccc(F)cc1 [PT-103, N-[(1S)-1-(4-fluorophenyl)ethyl]-2-[3-(4-hydroxyphenyl)-4-oxochromen-7-yloxy]acetamide]	29%	8 nM	–
Cc1nc(-c2ccc(C(F)(F)F)cc2)sc1COc1ccc2c(=O)c(-c3ccc(C#N)cc3)coc2c1 [PT-65, 4-[7-({4-methyl-2-[4-(trifluoromethyl)phenyl](1,3-thiazol-5-yl)}methoxy)-4-oxochromen-3-yl]benzenecarbonitrile]	25%	–	inhibition at 1 µM [2]: 30%
O=c1c(-c2ccc(O)cc2)coc2cc(OCCc3ccccc3)ccc12 [PT-87, 3-(4-hydroxyphenyl)-7-(2-phenylethoxy)chromen-4-one]	21%	–	inhibition at 1 µM [2]: 0.04%
O=C(COc1ccc2c(=O)c(-c3ccc(O)cc3)coc2c1)Nc1ccccc1C(F)(F)F [PT-84, 2-[3-(4-hydroxyphenyl)-4-oxochromen-7-yloxy]-N-[2-(trifluoromethyl)phenyl]-acetamide]	20%	15 nM	–
O=c1c(-c2ccc(O)cc2)coc2cc(OCc3noc(-c4ccc(F)cc4)n3)ccc12 [PT-11, 7-{[5-(4-fluorophenyl)(1,2,4-oxadiazol-3-yl)]methoxy}-3-(4-hydroxyphenyl)chromen-4-one]	35%	16 nM and 20 nM	–
